# Results published in patent US20240294471A1, “ROS-RESPONSIVE CAPTOPRIL-CINNAMALDEHYDE PRODRUGS AND COMPOSITIONS AND METHODS THEREOF” (The University of Hong Kong, priority 2021, published 2024).
# How the values were obtained:
# [1] = ROS-responsiveness: HPLC monitoring of CAPT-CA degradation in the presence of H2O2; assay type: physicochemical; settings: CAPT-CA 160 μM, H2O2 40 mM
# Description: HPLC spectra of CAPT, CA, CAPT-CA prodrug, and the degradation of CAPT-CA (160 μM) in the presence of H2O2 (40 mM) for different times were obtained. A C18 column was used. The mobile phase A was acetonitrile containing 0.1% TFA and mobile phase B was water containing 0.1% TFA. The elution procedure was shown as below: 0-5 min: 98% B→98% B; 5-15 min: 98% B→40% B; 15-17 min: 40% B→40% B. The flow rate was 1.5 mL/min. The detection wavelength was 220 nm.
# To evaluate the ROS-responsiveness of CAPT-CA, high performance liquid chromatography (HPLC) has been employed to monitor the release of CAPT and CA after incubation of CAPT-CA with a ROS reagent (hydrogen peroxide, H2O2). The retention time of free CAPT, free CA and CAPT-CA was at 10.138 min, 13.275 min, 14.283 min, respectively.
# [2] = system: Raw 264.7 cells; test: Cytotoxicity test (MTT assay); assay type: cell-based; settings: Raw264.7 cells, 24 h, with or without LPS (10 μg/mL), tested concentration range, FIG. 1
# Description: The effect of the prodrug on the viability of Raw 264.7 cells was determined using the MTT assay. Briefly, Raw 264.7 cells were seeded in 24-well plates. After a 24 h incubation, prodrugs were added to the cells at different concentrations and incubated for 1 h, and then, the cells were treated with or without LPS (10 μg/mL) for another 24 h. Next, 50 μL of MTT solution (5 mg/mL) were added to each well and the cells were incubated for 3 h at 37° C. Then, 1 mL of DMSO were added to dissolve the MTT-formazan crystal. The absorbance at 570 nm and 630 nm were measured. Three replicate wells were used in this experiment.
# [3] = system: LPS-stimulated Raw 264.7 cells; test: NO generation (nitrite in culture supernatant, Griess reagent); assay type: cell-based; settings: Raw264.7 cells, LPS 10 μg/mL, 24 h, dose-dependent, FIG. 2
# Description: Nitrite levels, an index of cellular NO production, in culture supernatants of Raw 264.7 cells were determined using a modified Griess reagent. Briefly, Raw 264.7 cells were seeded in 24-well plates. After a 24 h incubation, prodrugs were added to the cells at different concentrations and incubated for 1 h, and then the cells were treated with or without LPS (10 μg/mL) for another 24 h. The supernatant was mixed with an equal volume of Griess reagent and incubated at room temperature for 15 min. The absorbance at 540 nm was measured. Three replicate wells were used in this experiment.
# [4] = system: LPS-stimulated Raw264.7 cells; test: Protein levels of TNF-α, IL-1β and IL-6 by ELISA; assay type: cell-based; settings: supernatant, 24 h, dose dependent, FIGS. 3A-3C
# Description: The protein levels of TNF-α, IL-1β and IL-6 were determined by ELISA. Briefly, Raw 264.7 cells were seeded in 24-well plates. After a 24 h incubation, prodrugs were added to the cells at different concentrations and incubated for 1 h, and then the cells were treated with or without LPS (10 μg/mL) for another 24 h. The supernatants were collected for determination of protein levels according to the ELISA kit's instruction. Three replicate wells were used in this experiment.
# [5] = system: LPS-stimulated Raw264.7 cells; test: mRNA levels of proinflammatory cytokines by qRT-PCR; assay type: cell-based; settings: 24 h, dose dependent, FIGS. 4A-4C
# Description: […] Briefly, Raw 264.7 cells were seeded in 12-well plates. After a 24 h incubation, prodrugs were added to the cells at different concentrations and incubated for 1 h, and then the cells were treated with or without LPS (10 μg/mL) for another 24 h. qRT-PCR experiments were measured according to the manufacturer's instruction. Three replicate wells were used in this experiment.
structure (smiles),measurement,setting,value
CC(CSC(/C=C/c1ccccc1)SCC(C)C(=O)N1CCCC1C(=O)O)C(=O)N1CCCC1C(=O)O (stereo not drawn) [CAPT-CA],prodrug peak in HPLC after incubation with H2O2 (release of free CA and CAPT),[1]; 4 h,prodrug peak decreases
same,prodrug peak in HPLC after incubation with H2O2,[1]; 22 h,almost disappeared
same,cytotoxicity of the prodrug,[2],minimal
same,NO generation resulting from LPS stimulation,[3],significantly suppressed
same,"protein levels of the cytokines (TNF-α, IL-1β, IL-6)",[4],significantly down-regulates
same,"mRNA levels of the cytokines (TNF-α, IL-6, IL-1β)",[5],significantly down-regulates
